Source: patent EP0516034A1, “Pharmaceutical compositions with immunosuppresive properties” (FIDIA S.p.A., priority 1991, dated 1992)

Assays:
Assay type in all cases: cell-based, human
PBMC [1] = assay: DNA synthesis ([3H]thymidine incorporation) in PHA-stimulated PBMC; conditions: PBMC cultured 72 hours with PHA 1 µg/ml; for inhibition of DNA synthesis: result in words
Description: The PBMCs were obtained by standard density gradient centrifugation of heparinized human venous blood through a Ficoll-Hypaque cushion. The cells were composed of 90% lymphocytes and 10% monocytes as assessed by acridine orange staining.
DNA Synthesis. The cells were re-suspended in RPMI + 5% FCS and spread on 3072 Falcon microtiter plates at a density of 10⁵ cells in 0.2 ml of final volume. They were cultured for 72 hours at 37°C with PHA 1 µg/ml in the presence or absence of phospholipids. The cells were marked with 1 uCi/well of [³H]thymidine for the last 18 hours culture before being collected on filter paper and counted in a scintillation counter.

PBMC [2] = assay: Trypan blue exclusion test of cell viability; conditions: PHA activated PBMC
Description: To exclude cytotoxic effect of used derivatives, cell viability (> 99%) was tested before, during, and after the incubation by the trypan blue exclusion test.

IL-2 receptor = assay: Flow cytometry of IL-2 receptor expression on PHA-stimulated PBMC; conditions: 72 hours, PHA 1 µg/ml, PS 60 nmol/10⁶ cells; PHA alone 77%
Description: (§1) To confirm the DNA synthesis parameter data obtained, a second lymphocyte activity parameter was analysed - the expression of the IL-2 and transferrin receptors on the cell membrane.
(§2) To this purpose, after incubation with PHA 1 µg/ml for 72 hours in the presence or absence of PS, the cells were stained with fluorescent monoclonal antibodies against the above receptor, and then analysed on a FAC Star (Beckton-Dickinson) flow cytometer equipped with an argon ion laser operating at 480 nm and 200 mw.
(§3) 10⁵ PBMC were cultured for 72 hours with PHA 1 µg/ml in the presence or absence of PS 60 nmol/10⁶ cells. Fluorescence intensity (receptor expression) and light diffusion (cell size) were measured using flow cytometry. The data are reported as percentage of cells located in the shown region.

transferrin receptor = assay: Flow cytometry of transferrin receptor expression on PHA-stimulated PBMC; conditions: 72 hours, PHA 1 µg/ml, PS 60 nmol/10⁶ cells; PHA alone 54%
Description: as §1, §2, §3

Row | Compound | inhibition of DNA synthesis (PBMC [1]) | also measured
1 | phosphatidylserine [PS] | marked inhibition | IC50 (PBMC [1]; corresponds to 30 nmol PS/10⁶ cells, read-out: 50% of the maximum effect, concentration of PS in the medium): 15 µM; 50% of the maximum effect (inhibition of DNA synthesis) (PBMC [1]; phospholipid as liposomes): 30 nmol/10⁶ cells; Cell viability (PBMC [2]): not affected; lymphocytes expressing IL-2 receptors (IL-2 receptor): 15%; lymphocytes expressing transferrin receptors (transferrin receptor): 20%
2 | phosphatidylglycerol [PG, reference compound] | totally inactive | 
3 | CCCCCCCCCCCCCC(=O)OC[C@H](COP(=O)(O)OC[C@H](N)C(=O)O)OC(=O)CCCCCCCCCCCCC [dimyristoyl PS, dimyristoyl-PS, reference compound] | do not inhibit DNA synthesis, but slightly stimulate it | 
4 | phosphatidylcolin [PC, reference compound] | totally inactive | 
5 | phosphatidic acid [PA, reference compound] | totally inactive | 
6 | phosphatidylinositol [PI] | active | 
7 | CCCCCCCC/C=C\CCCCCCCCOCC(COCCCCCCCC/C=C\CCCCCCCC)OP(=O)(O)OC[C@H](N)C(=O)O [PS-S10, 1,3-dioleylglycero-2-phosphoryl-L-serine] | same activity as PS containing L-serine | 
8 | CCCCCCCC/C=C\CCCCCCCC(=O)OC[C@H](COP(=O)(O)OC[C@H](N)C(=O)O)OC(=O)CCCCCCC/C=C\CCCCCCCC [Dioleyl PS, dioleyl-PS] | same activity as PS containing L-serine | 
9 | CCCCCCCCCCCCCCCC(=O)OC[C@H](COP(=O)(O)OC[C@H](N)C(=O)O)OC(=O)CCCCCCCCCCCCCCC [dipalmitoyl PS, dipalmitoyl-PS, reference compound] | do not inhibit DNA synthesis, but slightly stimulate it | 
10 | CCCCCCCCCCCCCCCC(=O)OCC(COC(=O)CCCCCCCCCCCCCCC)OP(=O)(O)OC[C@H](N)C(=O)O [PS-S1, 1,3-dipalmitoylglycero-2-phosphoryl-L-serine, reference compound] | do not inhibit DNA synthesis, but slightly stimulate it | 
